# Results taken from patent publication US20190375708A1 (VenatoRx Pharmaceuticals, Inc., priority 2018, published 2019).
# Experiments:
# [1] = system: HBV replication in HepAD38 cells; assay: Anti-HBV replication assay in HepAD38 cells (QPCR of extracellular HBV DNA); assay type: cell-based, HBV (genotype D, serotype ayw); details: Hepatitis B virus, 168 h, 7 days incubation, extracellular HBV DNA by QPCR, read-out: Anti-HBV EC50
# Summary of the method: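 Compounds (1 log10 serial dilutions, […]) were left 7 days on tetracycline-free HepAD38 cultures, a HepG2 line with tet-controlled HBV genotype D. EC50 came from 4-parameter regression of percent inhibition versus vehicle, using supernatant HBV DNA copies/mL measured by QPCR.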
# [2] = In vitro cytotoxicity assay (MTT cell viability) in HepG2 cells; assay type: cell-based, human; details: human
# Summary of the method: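 CC50 values reflect loss of HepG2 viability after a 7-day exposure at 37 °C, 5% CO2. After 3-4 h with MTT, solubilized formazan was quantified at 492 nm relative to vehicle wells.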
smiles,measurement,setting,value
"Cc1cc(NC(=O)c2c(C)c(C(=O)C(=O)NCc3cnc(N)s3)n(C)c2C)ccc1F [Example 97, 5-(2-(((2-aminothiazol-5-yl)methyl)amino)-2-oxoacetyl)-N-(4-fluoro-3-methylphenyl)-1,2,4-trimethyl-1H-pyrrole-3-carboxamide]",EC50,[1],< 50 nM
same,CC50 at 7 days,[2],> 30000 nM
"Cc1c(C(=O)Nc2cccc(C(F)F)c2)c(C)n(C)c1C(=O)C(=O)N[C@]1(C)CC[C@H](O)CC1 [Example 701, N-(3-(difluoromethyl)phenyl)-5-(2-(((1s,4s)-4-hydroxy-1-methylcyclohexyl)amino)-2-oxoacetyl)-1,2,4-trimethyl-1H-pyrrole-3-carboxamide]",EC50,[1],< 50 nM
same,CC50 at 7 days,[2],> 30000 nM
"Cc1c(C(=O)Nc2ccc(F)c(F)c2)c(C)n(C)c1C(=O)C(=O)Nc1cccnc1 [Example 296, N-(3,4-difluorophenyl)-1,2,4-trimethyl-5-(2-oxo-2-(pyridin-3-ylamino)acetyl)-1H-pyrrole-3-carboxamide]",EC50,[1],< 50 nM
same,CC50 at 7 days,[2],> 30000 nM
"Cc1cc(NC(=O)c2c(C)c(C(=O)C(=O)N[C@H]3C[C@@H](NS(C)(=O)=O)C3)n(C)c2C)ccc1F [Example 669, N-(4-fluoro-3-methylphenyl)-1,2,4-trimethyl-5-(2-(((1s,3s)-3-(methylsulfonamido)cyclobutyl)amino)-2-oxoacetyl)-1H-pyrrole-3-carboxamide]",EC50,[1],< 50 nM
same,CC50 at 7 days,[2],> 30000 nM
"Cc1c(C(=O)Nc2ccc(F)c(C#N)c2)c2n(c1C(=O)C(=O)NC(C)(C)C)CCCC2 [Example 435, 3-(2-(tert-butylamino)-2-oxoacetyl)-N-(3-cyano-4-fluorophenyl)-2-methyl-5,6,7,8-tetrahydroindolizine-1-carboxamide]",EC50,[1],> 1000 nM
same,CC50 at 7 days,[2],5000 to 30000 nM
"CC(C)(C)NC(=O)C(=O)c1cc(C(=O)Nc2cc(F)c(F)c(F)c2)c2n1CCCC2 [Example 396, 3-(2-(tert-butylamino)-2-oxoacetyl)-N-(3,4,5-trifluorophenyl)-5,6,7,8-tetrahydroindolizine-1-carboxamide]",EC50,[1],50 to 499 nM
same,CC50 at 7 days,[2],5000 to 30000 nM
"Cc1cc(NC(=O)c2c(C)c(C(=O)C(=O)NC(C)(C)c3noc(CN(C)C)n3)n(C)c2C)cnc1F [Example 200, 5-(2-((2-(5-((dimethylamino)methyyl)-1,2,4-oxadiazol-3-yl)propan-2-yl)amino)-2-oxoacetyl)-N-(6-fluoro-5-methylpyridin-3-yl)-1,2,4-trimethyl-1H-pyrrole-3-carboxamide]",EC50,[1],50 to 499 nM
same,CC50 at 7 days,[2],> 30000 nM
"Cc1cc(NC(=O)c2c(C)c(C(=O)C(=O)N[C@@H]3CCNC3=O)n(C)c2C)ccc1F [Example 672, (R)-N-(4-fluoro-3-methylphenyl)-1,2,4-trimethyl-5-(2-oxo-2-((2-oxopyrrolidin-3-yl)amino)acetyl)-1H-pyrole-3-carboxamide]",EC50,[1],< 50 nM
same,CC50 at 7 days,[2],> 30000 nM
"Cc1cc(NC(=O)c2c(C)c(C(=O)C(=O)N[C@@H](CO)C(C)(C)C)n(C)c2C)ccc1F [Example 78, (R)—N-(4-fluoro-3-methylphenyl)-5-(2-((1-hydroxy-3,3-dimethylbutan-2-yl)amino)-2-oxoacetyl)-1,2,4-trimethyl-1H-pyrrole-3-carboxamide]",EC50,[1],< 50 nM
same,CC50 at 7 days,[2],> 30000 nM
"Cc1cc(NC(=O)c2c(C)c(C(=O)C(=O)NC3(CO)CC(F)(F)C3)n(C)c2C)ccc1F [Example 126, 5-(2-((3,3-difluoro-1-(hydroxymethyl)cyclobutyl)amino)-2-oxoacetyl)-N-(4-fluoro-3-methylpheenyl)-1,2,4-trimethyl-1H-pyrrole-3-carboxamide]",EC50,[1],< 50 nM
same,CC50 at 7 days,[2],> 30000 nM
"CC(=O)N1CCC[C@@H](NC(=O)C(=O)c2c(C)c(C(=O)Nc3ccc(F)c(C)c3)c(C)n2C)C1 [Example 639, (R)-5-(2-((1-acetylpiperidin-3-yl)amino)-2-oxoacetyl)-N-(4-fluoro-3-methylphenyl)-1,2,4-trimethyl-1H-pyrrole-3-carboxamide]",EC50,[1],< 50 nM
same,CC50 at 7 days,[2],> 30000 nM
"Cc1cc(NC(=O)c2c(C)c(C(=O)C(=O)Nc3ccc(F)c(F)c3)n(C)c2C)cnc1F [Example 341, 5-(2-((3,4-difluorophenyl)amino)-2-oxoacetyl)-N-(5-fluoro-5-methylpyridin-3-yl)-1,2,4-trimethyl-1H-pyrrole-3-carboxamide]",EC50,[1],50 to 499 nM
same,CC50 at 7 days,[2],> 30000 nM
"Cc1cc(NC(=O)c2c(C)c(C(=O)C(=O)NC(C)(C)COC(F)F)n(C)c2C)ccc1F [Example 718, 5-(2-((1-(difluoromethoxy)-2-methylpropan-2-yl)amino)-2-oxoacetyl)-N-(4-fluoro-3-methylphenyl)-1,2,4-trimethyl-1H-pyrrole-3-carboxamide]",EC50,[1],< 50 nM
same,CC50 at 7 days,[2],5000 to 30000 nM
"CC[C@@H](CO)NC(=O)C(=O)c1c(C)c(C(=O)Nc2cnc(F)c(C)c2)c(C)n1C [Example 186, (S)-N-(6-fluoro-5-methylpyridin-3-yl)-5-(2-((1-hydroxybutan-2-yl)amino)-2-oxoacetyl)-1,2,4-trimethyl-1H-pyrrole-3-carboxamide]",EC50,[1],50 to 499 nM
same,CC50 at 7 days,[2],> 30000 nM
"Cc1cc(NC(=O)c2c(Cl)c(C(=O)C(=O)NCC(C)(C)O)n3c2CCC3)cnc1F [Example 578, 6-chloro-N-(6-fluoro-5-methylpyridin-3-yl)-5-(2-((2-hydroxy-2-methylpropyl)amino)-2-oxoacetyl)-2,3-dihydro-1H-pyrrolizine-7-carboxamide]",EC50,[1],500 to 1000 nM
same,CC50 at 7 days,[2],> 30000 nM
"Cc1csc(C2(NC(=O)C(=O)c3c(C)c(C(=O)Nc4ccc(F)c(C)c4)c(C)n3C)CCCC2)n1 [Example 635, N-(4-fluoro-3-methylphenyl)-1,2,4-trimetthyl-5-(2-((1-(4-methylthiazol-2-yl)cyclopentyl)amino)-2-oxoacetyl)-1H-pyrrole-3-carboxamide]",EC50,[1],< 50 nM
same,CC50 at 7 days,[2],> 30000 nM
"Cc1cc(NC(=O)c2c(C)c(C(=O)C(=O)N[C@H](C(=O)OC(C)(C)C)C(C)(C)C)n(C)c2C)ccc1F [Example 23, tert-butyl (S)-2-(2-(4-((4-fluoro-3-methylphenyl)carbamoyl)-1,3,5-trimethyl-1H-pyrrol-2-yl)-2-oxoacetamido)-3,3-dimethylbutanoate]",EC50,[1],50 to 499 nM
same,CC50 at 7 days,[2],> 30000 nM
"O=C(N[C@H]1COC[C@@H]1O)C(=O)c1c(Cl)c(C(=O)Nc2ccc(F)c(F)c2)c2n1CCCC2 [Example 518, 2-chloro-N-(3,4-difluorophenyl)-3-(2-(((3S,4R)-4-hydroxytetrahydrofuran-3-yl)amino)-2-oxoacetyl)-5,6,7,8-tetrahdyroindolinzie-1-carboxamide]",EC50,[1],50 to 499 nM
same,CC50 at 7 days,[2],5000 to 30000 nM
"Cc1c(C(=O)Nc2ccc(F)c(F)c2)c2n(c1C(=O)C(=O)NC1(CO)CCC1)CCCC2 [Example 460, N-(3,4-difluorophenyl)-3-(2-((1-(hydroxymethyl)cyclobutyl)amino)-2-oxoacetyl)-2-methyl-5,6,7,8-tetrahydroindoline-1-carboxamide]",EC50,[1],< 50 nM
same,CC50 at 7 days,[2],5000 to 30000 nM
"Cc1cc(NC(=O)c2c(C)c(C(=O)C(=O)N[C@@H](C(N)=O)[C@H](C)O)n(C)c2C)ccc1F [Example 44, 5-(2-(((2R,3S)-1-amino-3-hydroxy-1-oxobutan-2-yl)amino)-2-oxoacetyl)-N-(4-fluoro-3-methylphenyl)-1,2,4-trimethyl-1H-pyrrole-3-carboxamide]",EC50,[1],< 50 nM
same,CC50 at 7 days,[2],> 30000 nM
"COCC1(CNC(=O)C(=O)c2c(C)c(C(=O)Nc3ccc(F)c(C)c3)c(C)n2C)CCCCC1 [Example 358, N-(4-fluoro-3-methylphenyl)-5-(2-(((1-(methoxymethyl)cyclohexyl)methyl)amino)-2-oxoacetyl)-1,2,4-trimethyl-1H-pyrrole-3-carboxamide]",EC50,[1],< 50 nM
same,CC50 at 7 days,[2],> 30000 nM
"Cc1cc(NC(=O)c2c(C)c(C(=O)C(=O)NC3(CN4CCOCC4)CCCC3)n(C)c2C)ccc1F [Example 595, N-(4-fluoro-3-methylphenyl)-1,2,4-trimethyl-5-(2-((1-(morpholinomethyl)cyclopentyl)amino)-2-oxoacetyl)-1H-pyrrole-3-carboxamide]",EC50,[1],< 50 nM
same,CC50 at 7 days,[2],> 30000 nM
"Cc1cc(NC(=O)c2c(C)c(C(=O)C(=O)NC(C)(C)C)n(C)c2C)ccc1F [Example 2, 5-(2-(tert-butylamino)-2-oxoacetyl)-N-(4-fluoro-3-methylphenyl)-1,2,4-trimethyl-1H-pyrrole-3-carboxamide]",EC50,[1],< 50 nM
same,CC50 at 7 days,[2],> 30000 nM
"Cc1cc(NC(=O)c2c(C)c(C(=O)C(=O)NOC(C)(C)C)n(C)c2C)ccc1F [Example 70, 5-(2-(tert-butoxyamino)-2-oxoacetyl)-N-(4-fluoro-3-methylphenyl)-1,2,4-trimethyl-1H-pyrrole-3-carboxamide]",EC50,[1],< 50 nM
same,CC50 at 7 days,[2],> 30000 nM
"Cc1c(C(=O)Nc2ccc(F)c(F)c2)c(C)n(C)c1C(=O)C(=O)NC1(c2nnn[nH]2)CCCC1 [Example 698, 5-(2-((1-(1H-tetrazol-5-yl)cyclopentyl)amino)-2-oxoacetyl)-N-(3,4-difluorophenyl)-1,2,4-trimethyl-1H-pyrrole-3-carboxmide]",EC50,[1],50 to 499 nM
same,CC50 at 7 days,[2],> 30000 nM
"Cc1cc(NC(=O)c2c(C)c(C(=O)C(=O)N[C@H]3CC[C@H](N)CC3)n(C)c2C)ccc1F [Example 232, 5-(2-(((1r,4r)-4-aminocyclohexyl)amino)-2-oxoacetyl)-N-(4-fluoro-3-methylphenyl)-1,2,4-trimethyl-1H-pyrrole-3-carboxamide]",EC50,[1],< 50 nM
same,CC50 at 7 days,[2],> 30000 nM
"Cc1c(C(=O)Nc2ccc(F)nc2)c(C)n(C)c1C(=O)C(=O)NC(C)C(F)(F)F (stereo not drawn) [Example 119, N-(6-fluoropyridin-3-yl)-1,2,4-trimethyl-5-(2-oxo-2-((1,1,1-trifluoropropan-2-yl)amino)acetyl)-1H-pyrrole-3-carboxamide]",EC50,[1],< 50 nM
same,CC50 at 7 days,[2],> 30000 nM
